Measurements reported in PubChem BioAssay (NCI).
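Assay format: 96-well plates, 48-hour exposure. Abbreviation: GI50, concentration required for 50% inhibition of growth. At the TGI there is no net growth.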

Tests used:
Assay in all cases: growth of human tumour cells (NCI), 48 h
HL-60(TB) leukemia = system: HL-60(TB) leukemia
SK-MEL-5 melanoma = system: SK-MEL-5 melanoma
COLO 205 colon = system: COLO 205 colon
HOP-92 NSCLC = system: HOP-92 NSCLC
RXF 393 renal = system: RXF 393 renal
SF-539 CNS = system: SF-539 CNS
MOLT-4 leukemia = system: MOLT-4 leukemia
NCI/ADR-RES ovarian = system: NCI/ADR-RES ovarian

Row | SMILES | TGI (HL-60(TB) leukemia) [µM] | TGI (SK-MEL-5 melanoma) | TGI (COLO 205 colon) | TGI (HOP-92 NSCLC) | TGI (RXF 393 renal) | TGI (SF-539 CNS) | TGI (MOLT-4 leukemia) | TGI (NCI/ADR-RES ovarian) | GI50 (HL-60(TB) leukemia) [µM] | GI50 (SK-MEL-5 melanoma) | GI50 (COLO 205 colon) | GI50 (HOP-92 NSCLC) | GI50 (SF-539 CNS) | GI50 (MOLT-4 leukemia) | GI50 (NCI/ADR-RES ovarian) | GI50 (RXF 393 renal)
1 | O=C1OC(c2ccc([N+](=O)[O-])cc2)=N/C1=C\c1ccc(O)cc1 | > 100 | > 100 µM | > 100 µM | > 100 µM | > 100 µM | > 100 µM | > 100 µM |  |  |  |  |  |  |  |  | 
2 | NC(C(=O)O)C(N)C(=O)O (configuration not stated) | > 100 | > 100 µM | > 100 µM | > 100 µM | > 100 µM | > 100 µM | > 100 µM | > 100 µM |  |  |  |  |  |  |  | 
3 | COc1ccc2cc(C(=O)/C=C/c3ccc(OC)c(OC)c3)ccc2c1 | 25 | 16.6 µM | 73.5 µM | 80.3 µM |  | 16.3 µM | > 100 µM |  | 2.31 | 2.82 µM | 30.7 µM | 13.2 µM | 3.77 µM | 5.97 µM |  | 
4 | CSC(=S)NN=C1CCCCC1 |  | 37.7 µM | > 100 µM | > 100 µM | > 100 µM | 67.7 µM | 40.8 µM | 60.6 µM |  |  |  |  |  |  |  | 
5 | c1ccc(-c2cc(-c3cc(-c4ccccn4)[nH]n3)n[nH]2)nc1 | > 100 | > 100 µM | > 100 µM | > 100 µM | > 100 µM | > 100 µM | > 100 µM | > 100 µM |  |  |  |  |  |  |  | 
6 | O=[N+]([O-])c1ccc(N(CCO)CCO)c2c1no[n+]2[O-] | 3.57 | 2.31 µM | 2.22 µM | 5.82 µM | 4.84 µM | 2.77 µM | 5.18 µM | 6.41 µM | 0.759 | 1.09 µM | 0.852 µM | 1.22 µM | 1.26 µM | 1.27 µM | 1.44 µM | 1.32 µM
7 | O=C(c1cccs1)c1c(C(F)(F)F)n([O-])c2cc(F)c(F)cc2[n+]1=O | 5.65 | 4.44 µM | 5.9 µM | 4.24 µM | 7.16 µM | 0.588 µM | 7.84 µM | 4.77 µM | 0.904 | 1.9 µM | 3.15 µM | 1.46 µM | 0.314 µM | 0.498 µM | 2.1 µM | 2.42 µM
8 | CN(C)CCCC1(c2ccc(F)cc2)OCc2cc(-c3ccc4cc[nH]c4c3)ccc21 (configuration not stated) | 3.77 | 3.25 µM | 4.68 µM | 7.9 µM | 7.56 µM | 3.23 µM | 4.34 µM | 5.31 µM | 1.74 | 1.81 µM | 2.11 µM | 2.28 µM | 1.78 µM | 2.04 µM | 2.21 µM | 2.48 µM
9 | N#CC1=C(N)Oc2c(sc3c(F)cccc23)C1c1ccc([N+](=O)[O-])cc1 (configuration not stated) | 0.806 | 1.24 µM | 1.11 µM | 1.18 µM | 0.753 µM | 0.524 µM | 1.46 µM | 0.734 µM | 0.212 | 0.165 µM | 0.279 µM | 0.156 µM | 0.188 µM | 0.132 µM | 0.0589 µM | 0.191 µM
10 | NC(=O)c1c(OCc2c(F)cc(Br)cc2F)nsc1NC(=O)NCCCCN1CCCC1 | 4.68 | 2.96 µM | 4.05 µM | > 10 µM | 1.71 µM | 2.92 µM | 9.76 µM | > 10 µM | 2.4 | 1.56 µM | 1.9 µM | 0.323 µM | 1.38 µM | 2.14 µM | 5.82 µM | 0.362 µM
11 | O=c1cccc(C#CCCCCOC2CCCO2)o1 (configuration not stated) | 52.9 | > 16.4 µM | > 31.1 µM | 11.5 µM | 50.2 µM | > 36.6 µM | > 30.8 µM | > 18 µM | 20.7 | 7.47 µM | 16.1 µM | 2.17 µM | 4.75 µM | 8.06 µM | 12.2 µM | 6.77 µM
12 | COc1cc2cc(C(=O)O)[nH]c2cc1OCc1ccccc1 | > 100 | > 100 µM | > 100 µM |  | > 100 µM | > 100 µM | > 100 µM | > 100 µM | > 100 | 80.8 µM | > 100 µM |  | > 100 µM | > 100 µM | > 100 µM | > 100 µM
13 | Clc1ccc2c(NCCCN3CCN(c4nc(-n5ccnc5)nc5ccccc45)CC3)ccnc2c1 | 5.18 | 3.17 µM | > 100 µM | > 62.3 µM | 3.34 µM | 3.34 µM | 6.85 µM |  | 2.17 | 1.74 µM | > 100 µM | 14.3 µM | 1.81 µM | 2.38 µM |  | 1.67 µM
14 | C=CC1=C(C)C2=NC1=CC1=NC(=C(CC)/C1=C/O)C=C1C=C3C(=O)C(C(=O)OC)C(=C4NC(=C2)C(C)C4CCC(=O)OC/C=C(\C)CCCC(C)CCCC(C)CCCC(C)C)C3=N1 (configuration not stated) (tested in a mixture with another compound) |  | > 100 µM | > 100 µM | > 100 µM |  | > 100 µM | > 100 µM | > 100 µM |  |  |  |  |  |  |  | 
15 | N#Cc1cccc(Nc2nccc(-c3cnn4ncccc34)n2)c1 | < 0.0129 | 0.018 µM | 0.00663 µM | 0.0166 µM | 0.00791 µM | 0.0154 µM |  |  | 0.00363 | 0.00618 µM | 0.00295 µM | 0.00589 µM | 0.00381 µM |  | 0.00697 µM | 0.00269 µM
16 | O=C=Nc1ccc(Cc2ccc(N=C=O)cc2)cc1 (tested in a mixture with another compound) |  | > 25 µg/mL | > 25 µg/mL | > 25 µg/mL | > 25 µg/mL | > 25 µg/mL | > 25 µg/mL | > 25 µg/mL |  | > 25 µg/mL | > 25 µg/mL | > 25 µg/mL | > 25 µg/mL | 1.33 µg/mL | > 25 µg/mL | > 25 µg/mL
17 | O=C1/C(=C\c2ccccc2)c2ccccc2N1Cc1ccccc1 | > 31.6 | 15.8 µM | 33.3 µM | 13.8 µM | 16.1 µM |  | 5.4 µM | 19.2 µM |  |  |  |  |  |  |  | 
18 | COc1ccc(/C=N/NC(=O)O)cc1 |  | > 100 µM | > 100 µM |  | > 100 µM | > 100 µM | > 100 µM | > 100 µM |  |  |  |  |  |  |  | 
